Measured values: patent publication US11998619B2, “Compound, antiinflammatory drug comprising the compound and cyclooxygenase-2 inhibitor comprising the compound” (priority 2018, dated 2024)

Legend:
[1] = tested on: MCAO-R stroke animal model; experiment: Cerebral infarction in MCAO-R stroke animal model (TTC staining); type: in vivo, Sprague Dawley (SD) rats; settings: 24 hours after reperfusion; FIG. 5B
COX-2 [2] = experiment: Western blotting of COX-2 expression after LPS treatment; type: cell-based; settings: Western blot, FIG. 4
COX-2 [3] = experiment: Immunofluorescence of COX-2 in LPS-treated cells; settings: FIG. 3
Procedure: Anti-inflammatory properties were evaluated based on in vitro experiments. Specifically, cells were treated with lipopolysaccharide (LPS) as an inflammation-inducing substance, thereby to induce an inflammatory reaction. […] Then, immunofluorescence images thereof were taken to identify COX-2 inhibitory ability thereof in the cells.
The green fluorescence indicates the presence of COX-2 which is induced by an inflammatory reaction in cells via treatment with LPS.

cyclooxygenase-2 (COX-2) = experiment: Western blot of COX-2 in tissue at the cerebral infarction site, MCAO-R model; type: in vivo, Sprague Dawley (SD) rats; settings: FIG. 5C

| SMILES | inhibition of cerebral infarction [1] | COX-2 expression inhibition (COX-2 band) (COX-2 [2]) | COX-2 inhibitory ability (green fluorescence, COX-2 positive cells) (COX-2 [3]) | inhibition of COX-2 protein amount at cerebral infarction site (cyclooxygenase-2 (COX-2)) |
| --- | --- | --- | --- | --- |
| O=C(O)c1cc(-c2ccc(F)cc2F)ccc1O [diflunisal] | significantly inhibit the cerebral infarction | do not achieve COX-2 inhibition effect | slightly lower than that in cells (LPS) treated with only LPS | exhibit inhibition of COX-2 activity |
| O=C(O)CCC(=O)c1ccc(-c2ccccc2)cc1 [fenbufen] | – | do not achieve COX-2 inhibition effect | – | – |
| CC1=C(CC(=O)O)c2cc(F)ccc2/C1=C\c1ccc([S+](C)[O-])cc1 (stereo not shown) [sulindac] | – | has COX-2 inhibition ability | excellent COX-2 inhibition ability | – |
